Experimental data published in patent US5977169A, “Substituted tetronic acids useful for treating HIV and other retroviruses” (priority 1997, dated 1999).
Structures can show the parent of a compound that is named as a salt.

Molecular target: T1, HIV-1 protease (Human immunodeficiency virus type 1 group M subtype B, UniProt P04585)
T1 construct: The protease (or proteinase) enzyme, consisting of only 99 amino acids
Assay: In vitro HIV protease inhibitory assay (fluorescently labeled substrate, avidin-polystyrene particles)
Assay type: biochemical
Conditions: for inhibition at 3.3 µM: HIV-1 dose 3.3 μM; for inhibition at 10 µM: HIV-1 dose 10.0 μM; for inhibition at 30 µM: HIV-1 dose 30.0 μM; for inhibition at 1 µM: HIV-1 dose 1.0 μM; for inhibition at 100 µM: HIV-1 dose 100.0 μM
Protocol: The HIV protease screening assay is based on a fluorescently labeled substrate which can be resolved from nonlabeled cleavage product using avidin-polystyrene particles, 0.7-0.9 μm. The substrate is biotinylated at the amino terminal arginine and fluorescently labeled with fluorescein isothiocynate (FITC) at the carboxyl terminal lysine. This assay has been employed to detect novel, nonpeptidic inhibitors of HIV-1 protease. Substrate (20 μl of 0.2 μM), sample (10 μl of desired concentraion), and enzyme (10 μl of 0.1 μM) are added to a 96 well pandex plate. The assay is run in 0.1 M sodium acetate buffer at pH 5.5 in the presence of 1.0 M sodium chloride and 0.05% NP-40 and incubated in the dark for one hour at room temperature. Avidin coated polystyrene beads (40 μl of 0.1% (w/v)) are added and the incubation is continued in the dark for an additional half hour. The labeled cleavage product is separated from the unreacted substrate via filtration and is read on the IDEXX Screen Machine. (IDEXX Corporation--Portland, Me.) The data are analyzed by appropriate computer algorithms to ascertain percent inhibition values.
The Activity Table showing the results of the HIV Protease Inhibitory Assay appears below in TABLE 1. The table has three columns, the left column provides the code number of the compound for easy cross reference to structure tables and detailed procedures, the middle column provides the concentration of test compound and the column on the right provides the percent inhibition.

| inhibition at 3.3 µM | inhibition at 10 µM | inhibition at 30 µM | SMILES | also measured |
| --- | --- | --- | --- | --- |
| 110% | 112% | 95.3% | CCCC1(CCC)OC(=O)C(C(c2ccccc2)C2CC2)=C1O (centres unmarked) [BX-12, 2(5H)-Furanone, 3-(cyclopropylphenylmethyl)-4-hydroxy-5,5-dipropyl-] |  |
| 107% | 114% | 109% | CCCC1(Cc2ccccc2)OC(=O)C(C(c2cccc(NS(=O)(=O)c3cccc4cccnc34)c2)C(C)C)=C1O (centres unmarked) [IX-31] |  |
| 92.7% | 94% | 99% | CCC1(CC)OC(=O)C(C(c2ccccc2)C2CC2)=C1O (centres unmarked) [BX-14, 2(5H)-Furanone, 3-(cyclopropylphenymethyl)-5,5-diethyl-4-hydroxy-] |  |
| 103% | 109% | 108% | CCC1(Cc2ccccc2)OC(=O)C(C(c2ccccc2)C(C)C)=C1O (centres unmarked) [IX-9, 2(5H)-Furanone, 5-ethyl-4-hydroxy-3-(2-methy1-1-phenylpropyl)-5-(phenyl-methyl)-] |  |
| 114% | 109% | 103% | CCCC1(CCc2ccccc2)OC(=O)C(C(c2ccccc2)C2CC2)=C1O (centres unmarked) [DX-8, 2(5H)-Furanone, 3-(cyclopropylphenylmethyl)-4-hydroxy-5-(2-phenyl-ethyl)-5-propyl-] |  |
| 102% | 114% | 103% | O=C1OC2(CCCCC2)C(O)=C1C(c1ccccc1)C1CC1 (centres unmarked) [IX-3, 1-Oxaspiro[4.5]dec-3-en-2-one, 3-(cyclopropyl-phenylmethyl)-4-hydroxy-] |  |
| 41.4% | 71.4% | 80.3% | CCC(C1=C(O)C(CCc2ccccc2)OC1=O)c1ccccc1 (centres unmarked) [BX-16, 2(5H)-Furanone, 4-hydroxy-5-(2-phenylethyl)-3-(1-phenylpropyl)-] |  |
|  |  |  | CCCC1(CCC)OC(=O)C(C(c2cccc(N)c2)C2CC2)=C1O (centres unmarked) [IX-12, 2(5H)-Furanone, 3-((3-aminophenyl)cyclopropylmethyl)-4-hydroxy-5,5-dipropyl-hydrochloride] | HIV-1 Protease % Inhibition (test compound concentration 3.3 μM): 117.79%; HIV-1 Protease % Inhibition (test compound concentration 10.0 μM): 119.69%; HIV-1 Protease % Inhibition (test compound concentration 30.0 μM): 120.48% |
| 94.5% | 96% | 96.8% | CCCC1(CCC)OC(=O)C(C(c2cccc(NS(=O)(=O)c3cn(C)cn3)c2)C2CCCC2)=C1O (centres unmarked) [IX-42, 1H-Imidazole-4-sulfonamide, N-(3-(cyclopentyl(2,5-dihydro-4-hydroxy-2-oxo-5,5-dipropyl-3-furanyl)methyl)phenyl)-1-methyl-] |  |
| 108% | 106% | 105% | CCCC1(CCCc2ccccc2)OC(=O)C(C(c2ccccc2)C2CC2)=C1O (centres unmarked) [DX-1, 2(5H)-Furanone, 3-(cyclopropylphenylmethyl)-4-hydroxy-5-(3-phenyl-propyl)-5-propyl-] |  |
| 97.4% | 96.9% | 101% | CCCC1(CCC)OC(=O)C(C(c2cccc(NS(=O)(=O)c3ccc(C#N)cc3)c2)C2CCCC2)=C1O (centres unmarked) [IX-41] |  |
|  |  |  | CC(C)CC1(CCCc2ccccc2)OC(=O)C(C(c2ccccc2)C2CC2)=C1O (centres unmarked) [DX-20, 2(5H)-Furanone, 3-(cyclopropylphenylmethy)-4-hydroxy-5-(2-methylpropyl)-5--(3-phenylpropyl)-] | inhibition at 0.12 µM (HIV-1 dose 0.12 μM): 29.2%; inhibition at 0.37 µM (HIV-1 dose 0.37 μM): 71.5%; inhibition at 1.1 µM (HIV-1 dose 1.1 μM): 90.3% |
| 82.2% | 98.8% | 91.9% | CCCC1(CCC)OC(=O)C(C(c2cccc(NS(=O)(=O)c3ccc(C#N)cn3)c2)C2CC2)=C1O (centres unmarked) [IX-35, 5-cyano-2-pyridinesulfonamide, N-(3-(cyclopropyl(2,5-dihydro-4-hydroxy-2-oxo-5,5-dipropyl-3-furanyl)methyl)phenyl)-] |  |
|  | 61.2% |  | O=C1OC(CCC2CCCCC2)C(O)=C1C(c1ccccc1)C1CC1 (centres unmarked) [BX-5, 2(5H)-Furanone, 5-(2-cyclohexylethyl)-3-(cyclopropylphenylmethyl)-4-hydroxy-] | inhibition at 1 µM: 12.6%; inhibition at 100 µM: 71.5% |
|  |  |  | O=C1OC(C(CCO)CCc2ccccc2)C(O)=C1C(c1ccccc1)C1CC1 (centres unmarked) [HX-2, 2(5H)-Furanone, 3-(cyclopropylphenylmethyl)-4-hydroxy-5-(1-(2-hydroxyethyl)--3-phenylpropyl)-] | inhibition at 0.1 µM (HIV-1 dose 0.1 μM): < 10%; inhibition at 0.3 µM (HIV-1 dose 0.3 μM): 13.5% |
| 76.8% | 78.1% | 106% | CCCC1(CCC)OC(=O)C(C(Cc2ccccc2)c2cccc(NS(=O)(=O)c3ccc(C#N)cc3)c2)=C1O (centres unmarked) [IX-39, Benzenesulfonamide, 4-cyano-N-(3-(1-(4-hydroxy-2-oxo-5,5-dipropyl-2,5-dihydro-furan-3-yl)-2-phenyl-ethyl)-phenyl)-] |  |

| inhibition at 3.3 µM | inhibition at 10 µM | inhibition at 30 µM | SMILES | also measured |
| --- | --- | --- | --- | --- |
| 93.6% | 108% | 103% | O=C1OC(C(CCc2ccccc2)c2ccccc2)C(O)=C1C(c1ccccc1)C1CC1 (centres unmarked) [GX-4, 2(5H)-Furanone,3-(cyclopropylphenylmethyl)-5-(1,3-diphenylpropyl)-4-hydroxy-] |  |
| 97.3% | 105% | 101% | CCC(C1=C(O)C(CC)(Cc2ccccc2)OC1=O)c1ccccc1 (centres unmarked) [IX-10, 2(5H)-Furanone, 5-ethyl-4-hydroxy-5-(phenyl-methyl)-3-(1-phenylpropyl)-] |  |
| 91.9% | 94.3% | 80.9% | Cn1cnc(S(=O)(=O)Nc2cccc(C(C3=C(O)C(Cc4ccccc4)(Cc4ccccc4)OC3=O)C3CC3)c2)c1 (centres unmarked) [IX-45, 1H-Imidazole-4-sulfonamide, N-(3-(cyclopropyl-(5,5-dibenzyl-4-hydroxy-2-oxo-2,5-dihydro-3-furanyl)methyl)phenyl)-1-methyl-] |  |
| 97% | 98.1% | 93.3% | CCC1CCCCC12OC(=O)C(C(c1ccccc1)C1CC1)=C2O (centres unmarked) [IX-34, 1-Oxaspiro[4.5]dec-3-en-2-one, 3-(cyclopropylphenylmethyl)-4-hydroxy-6-ethyl-] |  |
|  | 61.1% |  | CCCC1OC(=O)C(C(c2ccccc2)C2CC2)=C1O (centres unmarked) [BX-4, 2(5H)-Furanone, 3-(cyclopropylphenylmethyl)-4-hydroxy-5-propyl-] | inhibition at 1 µM: < 10%; inhibition at 100 µM: 83.3% |
| 37% | 79.6% | 83% | CCCC1(CCC)OC(=O)C(C(c2cccc(NS(=O)(=O)c3ncc[nH]3)c2)C2CC2)=C1O (centres unmarked) [IX-36] |  |
| 101% | 111% | 105% | CCC1(CCCc2ccccc2)OC(=O)C(C(c2ccccc2)C2CC2)=C1O (centres unmarked) [DX-11, 2(5H)-Furanone, 3-(cyclopropylphenylmethyl)-5-ethyl-4-hydroxy-5-(3-phenyl-propyl)-] |  |
| 90.8% | 91.1% | 104% | CCCC1(CCC)OC(=O)C(C(Cc2ccccc2)c2cccc(NS(=O)(=O)c3cn(C)cn3)c2)=C1O (centres unmarked) [IX-40] |  |
| 108% | 104% | 106% | CCCC1(CCC)OC(=O)C(C(c2cccc(NS(=O)(=O)c3nnnn3-c3ccccc3)c2)C2CC2)=C1O (centres unmarked) [IX-50] |  |
| 51% | 73.3% | 78.2% | O=C1OC(C(O)CCc2ccccc2)C(O)=C1C(c1ccccc1)C1CC1 (centres unmarked) [BX-8, 2(5H)-Furanone, 3-(cyclopropylphenylmethyl)-4-hydroxy-5-(1-hydroxy-3--phenylpropyl)-] |  |
| 112% | 104% | 91.5% | CC1(CCCc2ccccc2)OC(=O)C(C(c2ccccc2)C2CC2)=C1O (centres unmarked) [DX-10, 2(5H)-Furanone, 3-(cyclopropylphenylmethyl)-4-hydroxy-5-methyl-5-(3-phenyl-propyl)-] |  |
| 116% | 129% | 123% | CCCCC1(CCCc2ccccc2)OC(=O)C(C(c2ccccc2)C2CC2)=C1O (centres unmarked) [DX-12, 2(5H)-Furanone, 5-butyl-3-(cyclopropylphenylmethyl)-4-hydroxy-5-(3-phenyl-propyl)-] |  |
| 114% | 115% | 118% | C=CCC1(CCCc2ccccc2)OC(=O)C(C(c2ccccc2)C2CC2)=C1O (centres unmarked) [DX-16, 2(5H)-Furanone, 3-(cyclopropylphenylmethyl)-4-hydroxy-5-(3-phenyl-propyl)-5-(2-propenyl)-] |  |
| 81.9% | 101% | 92.5% | N#Cc1ccc(S(=O)(=O)Nc2cccc(CC3=C(O)C(Cc4ccccc4)(Cc4ccccc4)OC3=O)c2)cc1 [IX-56] |  |
| 108% | 112% | 103% | CCC1(CCc2ccccc2)OC(=O)C(C(c2ccccc2)C2CC2)=C1O (centres unmarked) [DX-7, 2(5H)-Furanone, 3-(cyclopropylphenylmethyl)-5-ethyl-4-hydroxy-5-(2-phenyl-ethyl)-] |  |
